Laboratory results taken from the supplement of paper PMC10307832.

Legend:
Test in all cases: relative viability (nuclei count vs DMSO), 5 days (fraction); higher = more cells survive
[1] = compound: NC(=O)[C@@H](CCC(F)(F)F)N(Cc1ccc(-c2ncon2)cc1F)S(=O)(=O)c1ccc(Cl)cc1 [Avagacestat] + CC(=O)c1c(C)c2cnc(Nc3ccc(N4CCNCC4)cn3)nc2n(C2CCCC2)c1=O [Palbociclib] (partner 0.5 µM)
Procedure, shortened: (§1)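 Cells from lung cancer lines were seeded into 1536-well plates and, one day later, dosed by pin tool. Treatments were either a single drug or a fixed dose of an anchor drug with five library-drug doses (not always all listed) in √10 steps. After 5 days, nuclei were stained in a one-step fixation (final 0.05% Triton X-100, 1% formaldehyde, 1 ug/ml Hoechst) and counted on 4× images, and relative viability is the treated-to-vehicle nuclei ratio, as the median of duplicate plates.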

Avagacestat + Luminespib = compound: NC(=O)[C@@H](CCC(F)(F)F)N(Cc1ccc(-c2ncon2)cc1F)S(=O)(=O)c1ccc(Cl)cc1 [Avagacestat] + CCNC(=O)c1noc(-c2cc(C(C)C)c(O)cc2O)c1-c1ccc(CN2CCOCC2)cc1 [Luminespib] (partner 0.01 µM)
Procedure, shortened: as §1

Avagacestat + OSI-027 = compound: NC(=O)[C@@H](CCC(F)(F)F)N(Cc1ccc(-c2ncon2)cc1F)S(=O)(=O)c1ccc(Cl)cc1 [Avagacestat] + COc1cccc2cc(-c3nc([C@H]4CC[C@H](C(=O)O)CC4)n4ncnc(N)c34)[nH]c12 [OSI-027] (partner 0.5 µM)
Procedure, shortened: as §1

Avagacestat + Pictilisib = compound: NC(=O)[C@@H](CCC(F)(F)F)N(Cc1ccc(-c2ncon2)cc1F)S(=O)(=O)c1ccc(Cl)cc1 [Avagacestat] + CS(=O)(=O)N1CCN(Cc2cc3nc(-c4cccc5[nH]ncc45)nc(N4CCOCC4)c3s2)CC1 [Pictilisib] (partner 1 µM)
Procedure, shortened: as §1

| Cell Line | relative viability ([1]; first compound 0.08 µM) | relative viability ([1]; first compound 0.253 µM) | relative viability ([1]; first compound 0.8 µM) | relative viability ([1]; first compound 2.53 µM) | relative viability ([1]; first compound 8 µM) | relative viability (Avagacestat + Luminespib; first compound 0.08 µM) | relative viability (Avagacestat + Luminespib; first compound 0.253 µM) | relative viability (Avagacestat + Luminespib; first compound 0.8 µM) | relative viability (Avagacestat + Luminespib; first compound 2.53 µM) | relative viability (Avagacestat + Luminespib; first compound 8 µM) | relative viability (Avagacestat + OSI-027; first compound 0.08 µM) | relative viability (Avagacestat + OSI-027; first compound 0.253 µM) | relative viability (Avagacestat + OSI-027; first compound 0.8 µM) | relative viability (Avagacestat + OSI-027; first compound 2.53 µM) | relative viability (Avagacestat + OSI-027; first compound 8 µM) | relative viability (Avagacestat + Pictilisib; first compound 0.08 µM) | relative viability (Avagacestat + Pictilisib; first compound 0.253 µM) | relative viability (Avagacestat + Pictilisib; first compound 0.8 µM) | relative viability (Avagacestat + Pictilisib; first compound 2.53 µM) | relative viability (Avagacestat + Pictilisib; first compound 8 µM) |
| --- | --- | --- | --- | --- | --- | --- | --- | --- | --- | --- | --- | --- | --- | --- | --- | --- | --- | --- | --- | --- |
| LK-2 | 0.949 | 0.818 | 0.64 | 0.542 | 0.824 | 0.185 | 0.176 | 0.198 | 0.154 | 0.169 | 0.189 | 0.206 | 0.162 | 0.181 | 0.212 | 0.653 | 0.76 | 0.429 | 0.473 | 0.541 |
| NCI-H838 | 0.221 | 0.244 | 0.226 | 0.208 | 0.215 | 0.363 | 0.256 | 0.233 | 0.254 | 0.191 | 0.364 | 0.466 | 0.389 | 0.398 | 0.366 | 0.504 | 0.405 | 0.568 | 0.411 | 0.319 |
| HCC-44 | 0.976 | 0.997 | 0.983 | 1.04 | 1.01 | 1.21 | 1.36 | 1.14 | 0.885 | 1.25 | 0.474 | 0.457 | 0.673 | 0.528 | 0.499 | 0.548 | 0.782 | 0.588 | 0.484 | 0.569 |
| IA-LM |  |  |  |  |  |  |  |  |  |  |  |  |  |  |  | 1.1 | 1.02 | 0.711 | 0.802 | 0.525 |
| NCI-H1734 | 0.384 | 0.335 | 0.399 | 0.301 | 0.328 | 0.219 | 0.179 | 0.212 | 0.202 | 0.175 | 0.612 | 0.713 | 0.643 | 0.552 | 0.515 | 0.538 | 0.483 | 0.462 | 0.419 | 0.418 |
| NCI-H1944 | 0.32 | 0.343 | 0.265 | 0.272 | 0.269 | 0.731 | 0.941 | 0.591 | 0.515 | 0.599 | 0.394 | 0.501 | 0.404 | 0.343 | 0.38 | 0.349 | 0.374 | 0.357 | 0.32 | 0.33 |
| HCC-366 | 0.355 | 0.34 | 0.465 | 0.332 | 0.333 |  |  |  |  |  | 1.07 | 1.49 | 1.01 | 0.772 | 0.872 | 0.137 | 0.36 | 0.0944 | 0.082 | 0.132 |
| LXF-289 | 0.624 | 0.613 | 0.612 | 0.578 | 0.582 | 0.794 | 0.675 | 0.912 | 0.686 | 0.603 | 0.817 | 0.757 | 0.703 | 0.673 | 0.804 | 0.786 | 0.857 | 0.781 | 0.753 | 0.66 |
| NCI-H661 | 0.415 | 0.343 | 0.428 | 0.386 | 0.419 | 0.983 | 1.08 | 0.946 | 0.913 | 1.01 | 0.786 | 0.775 | 0.694 | 0.704 | 0.669 | 0.435 | 0.38 | 0.487 |  | 0.471 |
